How the values were obtained:
[1] = in vitro dissolution (acid/base dissolution bath, USP apparatus, HPLC); type: physicochemical
Description: The amount of active dissolution over time, e.g., guaifenesin and/or phenylephrine in the tablets or capsules disclosed herein below may be tested as follows. Briefly, in vitro guaifenesin or phenylephrine release may be determined using an acid/base dissolution bath, e.g., a standard USP 23/NF Drug Release Apparatus. Dissolution vessels of a USP calibrated dissolution bath, equipped with shafts and paddles, are filled with 675 ml of 0.1N hydrochloric acid at 37.0 degrees Centigrade. The bath and vessels are maintained at a temperature of 37.0±0.5 degrees Centigrade throughout a standard 7 hour dissolution test. […] One tablet or capsule is dropped into each vessel.
At the testing intervals, e.g., 1 minute, 10, 10, 30, 45, 60 or 90 minutes, 2, 3, 4, 6, 7, 9 or 12 hour testing intervals, an aliquot, e.g., 5 mls of dissolution solution is withdrawn from each vessel, filtered (e.g., through a 10-22 micron polyethylene filter) and tested using an HPLC. To stop the dissolution a strong base may be added to the sample, e.g., 0.2M sodium phosphate tribasic to increase the pH of the solution to about 6.8. The percent dissolution is determined using HPLC.

[2] = accelerated stability of capsules (dissolution and assay over time); type: physicochemical
Description: The material was placed on accelerated stability.
Stability: Capsules were studied for stability.

[3] = water and alcohol; cited from earlier work

Row | release profile for gauifenesin ([1]; sustain releasing both actives) | potency on accelerated stability [2] | released immediately ([2]; capsules on accelerated stability) | dissolution rate of phenylephrine ([1]; when combined with Gauifenesin DC) | SMILES | solubility [3] | release of phenylephrine ([1]; phenylephrine overcoated with immediate release gauifenesin) | release profile ([2]; capsules on accelerated stability, month to month)
1 | poor release profile | stable potency | 100% | – | COc1ccccc1OCC(O)CO (stereo not shown) [Guaifenesin, 3(2-methoxyphenoxy)-1,2-propanediol] | soluble in water and alcohol | – | –
2 | – | – | – | accelerated | CNC[C@@H](O)c1cccc(O)c1.Cl [Phenylephrine hydrochloride, (S)-3-hydroxy-α[(methylamino)methyl]benzenemethanol hydrochloride] | – | slowed the release of the phenylephrine to an unacceptable level | first order release profile consistent with an 8 hour product

— patent US20050152967A1, “Dynamic variable release” (PFab, LP, priority 2003, published 2005)
